According to patent publication US20080038809A1, “ISOLATED LECTIN POLYPEPTIDES CONSISTING OF TRUNCATED […] UDP-GalNAc:POLYPEPTIDE N- ACETYLGALACTOSAMINYLTRANSFERASES” (GLYCOZYM APS, priority 2002, published 2008):
One block for each compound: values may come before it.

How the values were obtained:
[1] = molecular target: T1, secreted soluble GalNAc-T4 (Homo sapiens, UniProt Q8N4A0); test: Inhibition of secreted soluble GalNAc-T4 (sT4) binding to GalNAc-MUC1 glycopeptide, ELISA
T1 construct: 6xHis (N); thrombin cleavage site (N); T7 antibody site (N); made in house; host or cells: baculovirus (pAcGP67A), High Five insect cells
T1 sequence (Q8N4A0 36-578 limits assumed): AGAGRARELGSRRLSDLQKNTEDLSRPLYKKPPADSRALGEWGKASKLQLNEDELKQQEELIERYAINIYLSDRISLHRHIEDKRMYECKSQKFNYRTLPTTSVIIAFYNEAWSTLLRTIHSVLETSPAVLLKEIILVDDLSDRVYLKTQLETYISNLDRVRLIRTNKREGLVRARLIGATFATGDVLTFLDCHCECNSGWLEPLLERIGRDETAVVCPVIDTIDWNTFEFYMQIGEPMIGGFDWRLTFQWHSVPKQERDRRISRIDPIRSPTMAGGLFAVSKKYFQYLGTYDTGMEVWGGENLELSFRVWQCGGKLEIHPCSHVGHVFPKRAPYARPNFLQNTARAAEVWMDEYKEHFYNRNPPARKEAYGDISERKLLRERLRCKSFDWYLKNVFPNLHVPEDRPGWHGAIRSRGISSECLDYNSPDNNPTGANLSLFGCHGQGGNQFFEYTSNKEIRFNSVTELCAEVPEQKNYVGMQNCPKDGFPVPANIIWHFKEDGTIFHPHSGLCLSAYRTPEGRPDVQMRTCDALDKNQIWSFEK
Method: (§1) Direct binding ELISA assay was developed as follows: Polystyrene microtiter plates (Maxisorb, Nunc, Denmark) were coated with peptides or enzymatically glycosylated glycopeptides in PBS overnight at 4° C. Plates were washed and blocked with 0.1% Tween20 and 0.2% BSA in PBS for 1 h at room temperature, followed by incubation with biotinylated proteins in PBS with 0.05% Tween20 for 2 h at room temperature. After four washes with PBS, plates were incubated with 1:2,000 dilution streptavidin-HRP (Sigma) in PBS for 30 min at room temperature and washed four times with PBS. Development was performed with 0.5 mg/ml o-phenylenediamine and 0.02% H2O2 at room temperature for 15 min, and reaction stopped by adding 100 μl/well of 0.5 N H2SO4. Competitive inhibition assays were done at end-point titers of GalNAc-transferase proteins with one hour preincubations with inhibitor.
(§2) Inhibition experiments were used to further define the binding specificity of GalNAc-T2 and -T4 secreted soluble enzymes as well as lectin domains compared to Helix Pomatia lectin (Table IV).

GalNAc-T2 lectin domain = molecular target: T2, GalNAc-T2 lectin domain (Homo sapiens, UniProt Q10471); test: Inhibition of GalNAc-T2 lectin domain (T2ld) binding to GalNAc-MUC1 glycopeptide, ELISA
T2 construct: comprises amino acid residues 408-571 of GALNT2; made in house; host or cells: baculovirus (pAcGP67-A), virus made in Sf9, protein produced in High Five insect cells
T2 sequence (Q10471 408-571): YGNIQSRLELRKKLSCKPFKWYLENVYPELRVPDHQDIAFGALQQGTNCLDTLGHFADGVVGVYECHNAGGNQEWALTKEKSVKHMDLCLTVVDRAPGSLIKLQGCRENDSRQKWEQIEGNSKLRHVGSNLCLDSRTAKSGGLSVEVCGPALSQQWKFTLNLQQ
Method: as §1
In binding studies using lectins without biotinylation antibodies to the HIS-tag and the T7-tag, or in some experiments antibodies raised to GalNAc-T2 and -T4 enzymes were used to detect binding.
as §2

GalNAc-T7 = GalNAc-T7 (Homo sapiens, UniProt Q86SF2); details: mM concentrations; cited from earlier work
Sequence of GalNAc-T7 (Q86SF2 whole entry): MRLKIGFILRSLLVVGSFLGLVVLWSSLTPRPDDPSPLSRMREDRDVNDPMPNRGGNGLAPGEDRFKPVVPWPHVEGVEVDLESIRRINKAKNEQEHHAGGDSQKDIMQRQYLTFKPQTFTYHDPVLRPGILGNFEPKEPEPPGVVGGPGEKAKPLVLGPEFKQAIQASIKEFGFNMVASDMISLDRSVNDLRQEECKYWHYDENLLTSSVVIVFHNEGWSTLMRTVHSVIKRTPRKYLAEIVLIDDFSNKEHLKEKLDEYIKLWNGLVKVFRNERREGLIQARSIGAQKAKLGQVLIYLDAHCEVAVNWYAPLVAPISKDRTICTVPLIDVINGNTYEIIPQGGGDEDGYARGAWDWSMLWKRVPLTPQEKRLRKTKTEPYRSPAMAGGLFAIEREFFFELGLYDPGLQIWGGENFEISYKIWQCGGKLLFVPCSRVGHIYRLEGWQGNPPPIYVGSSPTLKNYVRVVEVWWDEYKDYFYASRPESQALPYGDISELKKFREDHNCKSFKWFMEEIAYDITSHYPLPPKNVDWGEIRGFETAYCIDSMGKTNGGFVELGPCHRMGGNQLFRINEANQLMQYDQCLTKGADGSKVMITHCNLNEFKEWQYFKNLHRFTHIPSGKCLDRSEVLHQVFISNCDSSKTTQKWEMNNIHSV

[2] = system: MUC1 in CHO1d1D/MUC1F-clone2 cells; test: Cell surface expression of MUC1 by immunocytology of non-permeabilized cells (FIG. 11); assay type: cell-based, Chinese Hamster; details: 1 mM, cells grown in GalNAc
Method: Immunocytology: Two different procedures were applied: i) For general screening purposes, cells grown in plates or flasks were trypsinized, washed in saline, and airdried on multiwell coverslides. Slides were fixed in ice-cold acetone and stained with monoclonal antibodies and FITC-conjugated rabbit anti-mouse Ig as previously described^50. ii) For analysis of cell surface expression, cells were seeded in 6 well plates and grown for 6 hours in Hams F12 medium with serum until approximately 30-50% subconfluent. […] Cells were washed once in PBS (phosphate buffered saline without Calcium and Magnesium) and subsequently fixed in 2 ml 3% paraformaldehyde at 25° C. for 20 min followed by three washes with PBS. Free aldehyde groups were quenched by incubating in 2 mL 50 mM Ammonium Chloride in PBS for 10 min, followed by three washes with PBS and three washes with 5 min incubations each with PBS containing 0.2% Fish Skin Gelatin (Sigma). Immunostaining of cells was performed by incubation with monoclonal antibodies for 40 min at 25° C., followed by three washes with PBS and three washes of 5 min each with PBS containing 0.2% Fish Skin Gelatin. […]
We therefore investigated the effect of treatment with GalNAcα-benzyl of CHO1d1D/MUC1F-clone2 cells grown in the presence of GalNAc. […] Initially we analyzed surface expression of MUC1 by immunocytology. […]

HT29 MTX cells = details: cited from earlier work
β3Gal-T4 = β3Gal-T4 (Homo sapiens, UniProt O96024); details: cited from earlier work
Sequence of β3Gal-T4 (O96024 whole entry): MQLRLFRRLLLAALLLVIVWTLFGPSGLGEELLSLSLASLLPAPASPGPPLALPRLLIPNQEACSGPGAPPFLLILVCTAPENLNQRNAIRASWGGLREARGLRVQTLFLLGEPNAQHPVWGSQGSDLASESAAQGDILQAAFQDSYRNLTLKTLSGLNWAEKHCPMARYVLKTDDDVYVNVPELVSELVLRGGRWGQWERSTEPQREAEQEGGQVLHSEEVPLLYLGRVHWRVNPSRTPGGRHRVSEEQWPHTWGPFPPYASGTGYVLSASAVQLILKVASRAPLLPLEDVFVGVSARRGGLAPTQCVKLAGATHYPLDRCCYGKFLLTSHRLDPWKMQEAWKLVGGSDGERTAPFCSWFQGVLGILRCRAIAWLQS

β3Gal-T5 = β3Gal-T5 (Homo sapiens, UniProt Q9Y2C3); details: cited from earlier work
Sequence of β3Gal-T5 (Q9Y2C3 whole entry, species assumed): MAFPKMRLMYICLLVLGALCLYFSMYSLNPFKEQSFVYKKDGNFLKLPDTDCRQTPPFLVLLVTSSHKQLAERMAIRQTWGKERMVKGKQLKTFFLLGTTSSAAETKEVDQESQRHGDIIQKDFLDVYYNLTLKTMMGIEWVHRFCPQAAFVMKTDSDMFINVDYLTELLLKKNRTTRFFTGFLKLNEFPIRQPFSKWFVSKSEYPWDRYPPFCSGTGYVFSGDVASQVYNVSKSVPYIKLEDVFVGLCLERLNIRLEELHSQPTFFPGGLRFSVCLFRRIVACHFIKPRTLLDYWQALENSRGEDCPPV

[3] = molecular target: human GalNAc-T4 (UDP-GalNAc:polypeptide N-acetylgalactosaminyltransferase T4), secreted soluble enzyme (sT4), wild type (Homo sapiens, UniProt Q8N4A0); details: binding to GalNAc-MUC1 glycopeptide
Sequence of human GalNAc-T4 (UDP-GalNAc:polypeptide N-acetylgalactosaminyltransferase T4), secreted soluble enzyme (sT4), wild type (Q8N4A0 36-578 limits assumed): as the sequence (Q8N4A0 36-578 limits assumed) above
Method: The pH of 1 ml purified protein (0.3 mg/ml) in PBS was adjusted to pH 9 with 1 M NaOH and 40 μl N-hydroxy-succinimidobiotin (Sigma) dissolved in DMF (10 mg/ml) was added. The solution was mixed end-over-end for 2 hours at room temperature, and dialyzed three times against PBS and an equal volume of glycerol was added. The biotinylated proteins were stored at −20° C. in 50% glycerol until use.
Glycopeptides were purified by C-18 reverse phase HPLC. Peptides were custom synthesized by Neosystems (Strasbourg). Biotinylated Helix Pomatia lectin (HPA) was from KemEnTec (Denmark). Anti-MUC1 HMFG2 monoclonal antibody was a generous gift from Joyce Taylor-Papadimitriou.
as §1, with “Development was performed with 0.5 mg/ml o-phenylenediamine and 0.02% H2O2 at room temperature for 15 min, and reaction stopped by adding 100 μl/well of 0.5 N H2SO4. Competitive inhibition assays were done at end-point titers of GalNAc-transferase proteins with one hour preincubations with inhibitor.” left out

- IC50 [1]: 1 mM
- IC50 (GalNAc-T2 lectin domain): 20 mM
SMILES: CC(=O)N[C@H]1[C@@H](OCc2ccccc2)O[C@H](CO)[C@H](O)[C@@H]1O [BzlαGalNAc, benzyl-N-acetyl-alpha-D-galactosaminide]
- inhibition of lectin mediated GalNAc-glycopeptide substrate specificity of GalNAc-T7 (GalNAc-T7): can inhibit
- cell surface expression of MUC1 [2]: strong inhibition

SMILES: CC(=O)N[C@H]1[C@@H](OCc2ccccc2)O[C@H](CO)[C@H](O)[C@@H]1O [GalNAcα-benzyl, benzyl-N-acetyl-alpha-D-galactosaminide]
- inhibition of mucin secretion (HT29 MTX cells): Inhibition of mucin secretion

SMILES: CC(=O)N[C@H]1[C@H](OCc2ccccc2)O[C@H](CO)[C@H](O)[C@@H]1O [GalNAcβ-benzyl]
- activity of β3Gal-T4 with the compound as acceptor (β3Gal-T4): no or very poor activity
- activity of β3Gal-T5 with the compound as acceptor (β3Gal-T5): no or very poor activity

- inhibition of GalNAc-T4 lectin binding (in words) [3]: no inhibition
SMILES: CC(=O)N[C@H]1[C@@H](OCc2ccccc2)O[C@H](CO)[C@@H](O)[C@@H]1O [GlcNAcα-benzyl]
